tested on: Human RSV-A (“Long” strain); assay: RSV in vitro cytoprotection assay in HEp-2 cells (ATPlite read-out); format: cell-based; conditions: human respiratory syncytial virus, 96 h; HEp-2 cells, genotype A “Long” strain RSV, 4-day incubation, ATPlite; read-out: Human RSV-A (“Long” strain) EC50
Source text: RSV is a single stranded negative sense RNA virus that causes respiratory tract infections which can be dangerous to infants, the elderly, and immunosuppressed individuals. Currently there is no vaccine, and therapeutic options are both costly and of limited effectiveness. These approved treatments are Ribavirin, and Palivizumab/Synagis (a monoclonal antibody). RSV has two genotypes, A and B, which differ primarily in the structure of the virus' surface “G” attachment protein. Our current primary screen focuses on RSV-A and uses an in vitro cytoprotection assay where compounds are added in 2-fold dilutions to cells which are then subjected to fully replicative viral particles. Cell viability is measured several days later along with separate measurements of compound cytotoxicity. This report focuses on the results of our most recent screening of compounds.
HEp-2 cells, (originally derived from tumors grown in irradiated-cortisonised weanling rats that had been injected with epidermoid carcinoma tissue from a person's larynx, but later found to be indistinguishable from HeLa cells by PCR DNA analysis), were used for the culturing of genotype A, “Long” strain RSV. Flasks were inoculated with RSV and viral stocks were collected once cytopathic effect (CPE) was greater than 90%. Viral stocks in 25% sucrose media were snap frozen using liquid nitrogen to increase viral stability. Viral stock titers were quantified by tissue culture infectious dose 50% (TCID50) using 8,000 cells per well and 3-fold viral dilutions across a 96-well plate, cultured for 4 days.
Following extensive parameter testing, the final assay is run as follows: HEp-2 cells are seeded into the inner 60 wells of a 96-well plate at 8,000 cells per well in a volume of 50 μL using Growth Media (DMEM without phenol red, 1% L-Glut, 1% Penn/Strep, 1% nonessential amino acids, 10% FBS). 2-Fold serial dilutions of control and test compounds are added to the wells in duplicate in a total volume of 25 μL. Viral stock is then added to the wells in a volume of 25 μL, bringing the total volume of each well to 100 μL. Each 96-well plate has a control column of 6 wells with cells and virus but no compound (negative control, max CPE), a column with cells but no compound or virus (positive control, minimum CPE), and a column with no cells or virus or compound (background plate/reagent control). The control wells with cells but no virus are given an additional 25 μL of growth media containing an equal quantity of sucrose as those wells receiving the viral stock in order to keep consistent in media and volume conditions. The outer wells of the plate are filled with 125 μL of growth media to act as a thermal and evaporative moat around the test wells. Following a 4-day incubation period, the plates are read using ATPlite (50 μL added per well), which quantifies the amount of ATP (a measure of cell health) present in each well. Assay plates are read using the Envision luminometer. In parallel, cytotoxicity is examined on an additional 96-well plate treated in an identical manner, but substituting the 25 μL of viral stock for 25 μL of growth media. […] EC50 ranges are as follows: A<0.1 μM; B 0.1-0.5 μM; C>0.5 μM

EC50 [nM]	SMILES
< 100	Cc1cnc(N2CC3(CCOCC3)C2)c(C(=O)Nc2ccc(C(=O)N3CCc4cc(C(=O)c5nccn5C)sc4-c4ccc(F)cc43)cc2)c1 [Example 1]
100 to 500	Cc1cnc(N2CC3(CCOCC3)C2)c(C(=O)Nc2ccc(C(=O)N3CCc4cc(C(=O)c5nc6ccccc6n5C)sc4-c4ccc(F)cc43)cc2)c1 [Example 2]
< 100	Cc1cnc(N2CC3(CCOCC3)C2)c(C(=O)Nc2ccc(C(=O)N3CCc4cc(C(=O)c5nc6ncccc6[nH]5)sc4-c4ccc(F)cc43)cc2)c1 [Example 3]
< 100	Cc1cnc(N2CC3(CCOCC3)C2)c(C(=O)Nc2ccc(C(=O)N3CCc4cc(C(=O)c5nc(C)c(C)[nH]5)sc4-c4ccc(F)cc43)cc2)c1 [Example 4]
100 to 500	Cc1cnc(N2CC3(CCOCC3)C2)c(C(=O)Nc2ccc(C(=O)N3CCc4cc(C(=O)c5nc6cc(F)ccc6[nH]5)sc4-c4ccc(F)cc43)cc2)c1 [Example 5]
< 100	Cc1cnc(N2CC3(CCOCC3)C2)c(C(=O)Nc2ccc(C(=O)N3CCc4cc(C(=O)c5nc6c(C)cccc6[nH]5)sc4-c4ccc(F)cc43)cc2)c1 [Example 6]
< 100	Cc1cnc(N2CC3(CCOCC3)C2)c(C(=O)Nc2ccc(C(=O)N3CCc4cc(C(=O)c5nc6c(F)cccc6[nH]5)sc4-c4ccc(F)cc43)cc2)c1 [Example 7]
< 100	Cc1cnc(N2CC3(CCOCC3)C2)c(C(=O)Nc2ccc(C(=O)N3CCc4cc(C(=O)c5nc6ccccc6[nH]5)sc4-c4ccc(F)cc43)cc2)c1 [Example 8]
< 100	Cc1cnc(N2CC3(CCOCC3)C2)c(C(=O)Nc2ccc(C(=O)N3CCc4cc(C(=O)c5ncc(C)[nH]5)sc4-c4ccc(F)cc43)cc2)c1 [Example 9]
100 to 500	Cc1cnc(N2CC3(CCOCC3)C2)c(C(=O)Nc2ccc(C(=O)N3CCc4cc(C(=O)c5nc(C6CC6)c[nH]5)sc4-c4ccc(F)cc43)cc2)c1 [Example 10]
< 100	Cc1cnc(N2CC3(CCOCC3)C2)c(C(=O)Nc2ccc(C(=O)N3CCc4cc(C(=O)c5nc6ccccc6[nH]5)sc4-c4ccccc43)cc2)c1 [Example 11]
< 100	Cc1cnc(N2CC3(CCOCC3)C2)c(C(=O)Nc2ccc(C(=O)N3CCc4cc(C(=O)c5nc6ccccc6[nH]5)oc4-c4ccccc43)cc2)c1 [Example 12]
< 100	Cc1cnc(N2CC3(CCOCC3)C2)c(C(=O)Nc2ccc(C(=O)N3CCc4cc(C(=O)c5nc(C)c(C)[nH]5)oc4-c4ccccc43)cc2)c1 [Example 13]
< 100	Cc1cnc(N2CC3(CCOCC3)C2)c(C(=O)Nc2ccc(C(=O)N3CCc4cc(C(=O)c5ncc(C)[nH]5)oc4-c4ccccc43)cc2)c1 [Example 14]
< 100	Cc1cnc(N2CC3(CCOCC3)C2)c(C(=O)Nc2ccc(C(=O)N3CCc4cc(C(=O)c5nc6c(C)cccc6[nH]5)oc4-c4ccccc43)cc2)c1 [Example 15]
< 100	Cc1cnc(N2CC3(CCOCC3)C2)c(C(=O)Nc2ccc(C(=O)N3CCc4cc(C(=O)c5nc6c(F)cccc6[nH]5)oc4-c4ccccc43)cc2)c1 [Example 16]
< 100	Cc1cnc(N2CC3(CCOCC3)C2)c(C(=O)Nc2ccc(C(=O)N3CCc4cc(C(=O)c5nc6c([nH]5)CCCC6)oc4-c4ccccc43)cc2)c1 [Example 17]
< 100	Cc1cnc(N2CC3(CCOCC3)C2)c(C(=O)Nc2ccc(C(=O)N3CCc4cc(C(=O)c5nc6ccccc6n5C)oc4-c4ccccc43)cc2)c1 [Example 18]
< 100	Cc1cnc(N2CC3(CCOCC3)C2)c(C(=O)Nc2ccc(C(=O)N3CCc4cc(C(=O)c5nccn5C)sc4-c4ncccc43)cc2)c1 [Example 19]
> 500	Cc1cnc(N2CC3(CCOCC3)C2)c(C(=O)Nc2ccc(C(=O)N3CCc4cc(C(=O)c5nc6c(C)cccc6[nH]5)sc4-c4ncccc43)cc2)c1 [Example 20]

EC50 [nM]	SMILES
< 100	Cc1cnc(N2CC3(CCOCC3)C2)c(C(=O)Nc2ccc(C(=O)N3CCc4cc(C(=O)c5nc6ccccc6[nH]5)sc4-c4ncccc43)cc2)c1 [Example 21]
< 100	Cc1cnc(N2CC3(CCOCC3)C2)c(C(=O)Nc2ccc(C(=O)N3CCc4cc(C(=O)c5nc6c([nH]5)CCCC6)sc4-c4ncccc43)cc2)c1 [Example 23]
< 100	Cc1cnc(N2CC3(CCOCC3)C2)c(C(=O)Nc2ccc(C(=O)N3CCc4cc(C(=O)c5nc6c([nH]5)CCC6)sc4-c4ncccc43)cc2)c1 [Example 24]
100 to 500	Cc1cnc(N2CC3(CCOCC3)C2)c(C(=O)Nc2ccc(C(=O)N3CCc4cc(C(=O)c5nc6ccccc6n5C)sc4-c4ncccc43)cc2)c1 [Example 25]
< 100	Cc1cnc(N2CC3(CCOCC3)C2)c(C(=O)Nc2ccc(C(=O)N3CCc4cc(C(=O)c5nc6c(F)cccc6[nH]5)sc4-c4ncccc43)cc2)c1 [Example 26]
> 500	Cc1ccc(C(=O)Nc2ccc(C(=O)N3CCc4c(sc(C(=O)c5nc6ccccc6[nH]5)c4F)-c4ccccc43)cc2)c(N2CC3(CCOCC3)C2)n1 [Example 27]
< 100	Cc1ccc(C(=O)Nc2ccc(C(=O)N3CCc4c(sc(C(=O)c5nccn5C)c4F)-c4ccccc43)cc2)c(N2CC3(CCOCC3)C2)n1 [Example 28]
< 100	Cc1cnc(N2CC3(CCOCC3)C2)c(C(=O)Nc2ccc(C(=O)N3CCc4cc(C(=O)c5ncc6ccccn56)sc4-c4ccc(F)cc43)cc2)c1 [Example 29]
< 100	Cc1cnc(N2CC3(CCOCC3)C2)c(C(=O)Nc2ccc(C(=O)N3CCc4cc(C(=O)c5nc6ccccc6o5)sc4-c4ccc(F)cc43)cc2)c1 [Example 30]
100 to 500	Cc1cnc(N2CC3(CCOCC3)C2)c(C(=O)Nc2ccc(C(=O)N3CCc4cc(C(=O)c5nnc(C)o5)sc4-c4ccc(F)cc43)cc2)c1 [Example 31]
< 100	Cc1cnc(N2CC3(CCOCC3)C2)c(C(=O)Nc2ccc(C(=O)N3CCc4cc(C(=O)c5nc(C#N)c[nH]5)sc4-c4ccc(F)cc43)cc2)c1 [Example 32]
< 100	Cc1cnc(N2CC3(CCOCC3)C2)c(C(=O)Nc2ccc(C(=O)N3CCc4cc(C(=O)c5nc(C(F)(F)F)c[nH]5)sc4-c4ccc(F)cc43)cc2)c1 [Example 33]
100 to 500	Cc1cnc(N2CC3(CCOCC3)C2)c(C(=O)Nc2ccc(C(=O)N3CCc4cc(C(=O)c5cc(C(F)(F)F)n[nH]5)sc4-c4ccc(F)cc43)cc2)c1 [Example 34]
< 100	Cc1cnc(N2CC3(CCOCC3)C2)c(C(=O)Nc2ccc(C(=O)N3CCc4cc(C(=O)c5cc(C)n[nH]5)sc4-c4ccc(F)cc43)cc2)c1 [Example 35]
< 100	Cc1cnc(N2CC3(CCOCC3)C2)c(C(=O)Nc2ccc(C(=O)N3CCc4cc(C(=O)c5[nH]nnc5C)sc4-c4ccc(F)cc43)cc2)c1 [Example 36]
100 to 500	Cc1ccc(C(=O)Nc2ccc(C(=O)N3CCc4cc(C(=O)c5[nH]nnc5C)sc4-c4ccc(F)cc43)cc2)c(N2CC3(CCOCC3)C2)n1 [Example 37]
> 500	Cc1cnc(N2CC3(CCOCC3)C2)c(C(=O)Nc2ccc(C(=O)N3CCc4cc(C(=O)c5ccccc5C)sc4-c4ccccc43)cc2)c1 [Example 38]
100 to 500	Cc1cnc(N2CC3(CCOCC3)C2)c(C(=O)Nc2ccc(C(=O)N3CCc4cc(C(=O)c5ccccc5F)sc4-c4ccccc43)cc2)c1 [Example 39]
100 to 500	Cc1cnc(N2CC3(CCOCC3)C2)c(C(=O)Nc2ccc(C(=O)N3CCc4cc(C(=O)c5ncccc5C)sc4-c4ccccc43)cc2)c1 [Example 40]

same assay, conditions: human respiratory syncytial virus, HEp-2

SMILES	EC50 [nM]
O=C(Nc1ccccc1F)N[C@H]1N=C(c2ccccc2)c2ccccc2NC1=O [RSV-604, reference compound]	~2400
